Legend:
[1] = target: 11-beta-hydroxysteroid dehydrogenase 1 (Homo sapiens, UniProt P28845); experiment: Inhibition of human 11beta-HSD1 expressed in HEK293 cells after 2 hrs by scintillation proximity assay; assay type: cell-based
[2] = target: T1, 11-beta-hydroxysteroid dehydrogenase type 2 (Homo sapiens) (UniProt P80365); experiment: Inhibition of human 11beta-HSD2 at 10 uM by scintillation proximity assay
T1 sequence (whole entry): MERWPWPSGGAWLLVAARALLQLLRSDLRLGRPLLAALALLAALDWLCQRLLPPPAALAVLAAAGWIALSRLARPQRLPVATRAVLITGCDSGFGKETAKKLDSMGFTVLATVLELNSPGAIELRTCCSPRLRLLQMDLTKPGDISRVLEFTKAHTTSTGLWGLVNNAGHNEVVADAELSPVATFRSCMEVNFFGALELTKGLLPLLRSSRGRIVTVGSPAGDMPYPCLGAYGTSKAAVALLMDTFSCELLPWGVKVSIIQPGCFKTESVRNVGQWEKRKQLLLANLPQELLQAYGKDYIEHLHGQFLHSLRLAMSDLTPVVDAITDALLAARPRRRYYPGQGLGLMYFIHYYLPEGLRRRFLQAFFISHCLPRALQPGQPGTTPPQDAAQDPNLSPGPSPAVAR

[3] = target: 11-beta-hydroxysteroid dehydrogenase 1 (Mus musculus, UniProt P50172); experiment: Inhibition of mouse 11beta-HSD1 expressed in CHO cells after 4 hrs by scintillation proximity assay; assay type: cell-based
Mus musculus [4] = experiment: Inhibition of HSD1 in C57BL/6 mouse kidney at 10 mg/kg, ip; assay type: functional; details: C57BL/6, Kidney, route intraperitoneal
Mus musculus [5] = experiment: Inhibition of HSD1 in C57BL/6 mouse liver at 10 mg/kg, ip; assay type: functional; details: C57BL/6, Liver, route intraperitoneal
Mus musculus [6] = experiment: Inhibition of HSD1 in C57BL/6 mouse adipose tissue at 10 mg/kg, ip; assay type: functional; details: C57BL/6, Adipose tissue, route intraperitoneal
Mus musculus [7] = experiment: Inhibition of HSD1 in C57BL/6 mouse brain at 10 mg/kg, ip; assay type: functional; details: C57BL/6, Brain, route intraperitoneal

Sequence of 11-beta-hydroxysteroid dehydrogenase 1 (Homo sapiens, UniProt P28845) (P28845 whole entry): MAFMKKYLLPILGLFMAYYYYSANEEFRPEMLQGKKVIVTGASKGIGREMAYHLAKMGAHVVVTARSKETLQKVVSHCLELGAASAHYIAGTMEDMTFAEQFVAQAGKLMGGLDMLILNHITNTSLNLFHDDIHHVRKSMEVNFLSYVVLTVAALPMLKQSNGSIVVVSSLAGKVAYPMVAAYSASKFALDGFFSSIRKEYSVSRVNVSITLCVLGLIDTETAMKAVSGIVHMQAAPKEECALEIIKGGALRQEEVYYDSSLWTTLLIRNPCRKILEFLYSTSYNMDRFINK
Sequence of 11-beta-hydroxysteroid dehydrogenase 1 (Mus musculus, UniProt P50172) (P50172 whole entry): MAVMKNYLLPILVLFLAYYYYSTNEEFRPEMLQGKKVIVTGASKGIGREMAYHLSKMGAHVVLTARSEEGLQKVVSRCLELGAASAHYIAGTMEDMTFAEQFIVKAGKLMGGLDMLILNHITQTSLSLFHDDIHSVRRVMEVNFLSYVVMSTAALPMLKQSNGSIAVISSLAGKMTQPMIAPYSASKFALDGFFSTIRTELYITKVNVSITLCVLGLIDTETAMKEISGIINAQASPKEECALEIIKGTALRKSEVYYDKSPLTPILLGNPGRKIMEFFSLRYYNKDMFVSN

Row | IC50 [1] | inhibition [2] | Structure (SMILES) | further results
1 | 64 µM | 48% | Cc1ccc(C23CC4CC(CC(C(=O)N5CCN(S(=O)(=O)c6ccccc6)CC5)(C4)C2)C3)cc1 | –
2 | 48 µM | 0% | CCN1CCN(C(=O)CCC2CCCCC2)CC1 | –
3 | > 100 µM | 20% | O=C(c1ccccc1)N1CCN(C(=O)C23CC4CC(CC(C4)C2)C3)CC1 | –
4 | 7.3 µM | 9% | O=C(N1CCCCC1)C12CC3CC(CC(O)(C3)C1)C2 | –
5 | > 100 µM | 35% | O=C(N1CCN(S(=O)(=O)c2ccccc2)CC1)C12CC3CC(CC(C3)C1)C2 | –
6 | 15 µM | 0% | CCN1CCN(C(=O)C2=C(C)c3ccccc3C2)CC1 | –
7 | 10 µM | 56% | Cc1ccc(C23CC4CC(CC(C(=O)N5CCN(C(C#N)C(C)C)CC5)(C4)C2)C3)cc1 (stereo not given) | –
8 | 0.7 µM | 13% | CN1CCN(C(=O)C23CC4CC(CC(C4)C2)C3)CC1 | –
9 | 8.2 µM | 31% | O=C(N1CCNCC1)C12CC3CC(CC(C3)C1)C2 | –
10 | 53 µM | – | CCN1CCN(C(=O)C23CC4CC(CC(O)(C4)C2)C3)CC1 | –
11 | 0.846 µM | 0% | O=C(N1CCC2CCCCC2C1)C12CC3CC(CC(C3)C1)C2 (stereo not given) | IC50 [3]: 0.23 µM
12 | 8.1 µM | 0% | Cc1ccc(C23CC4CC(CC(C(=O)N5CCN(Cc6ccncc6)CC5)(C4)C2)C3)cc1 | –
13 | 7.2 µM | 0% | O=C(N1CCN(Cc2ccncc2)CC1)C12CC3CC(CC(C3)C1)C2 | –
14 | > 100 µM | 40% | CCN1CCN(C(=O)CC2CCCCC2)CC1 | –
15 | 0.756 µM | 11% | CCN1CCN(C(=O)C23CC4CC(CC(C4)C2)C3)CC1 | IC50 [3]: 0.3 µM
16 | 24 µM | 39% | N#CC(c1ccccc1)N1CCN(C(=O)C23CC4CC(CC(C4)C2)C3)CC1 (stereo not given) | –
17 | 20 µM | 0% | CCN1CCN(C(=O)C2CCC(C(C)(C)C)CC2)CC1 (stereo not given) | IC50 [3]: 1.2 µM
18 | 12 µM | 7% | COCCN1CCN(C(=O)C23CC4CC(CC(C4)C2)C3)CC1 | –
19 | 0.2 µM | 39% | O=C(C1C2CC3CC(C2)CC1C3)N1CCCCC1 (stereo not given) | –
20 | 2.1 µM | 41% | COCCN1CCN(C(=O)C23CC4CC(C2)CC(c2ccc(C)cc2)(C4)C3)CC1 | –
21 | > 100 µM | 0% | CCN1CCN(C(=O)C(C)(C)C)CC1 | –
22 | 20 µM | 45% | CC(C)C(C#N)N1CCN(C(=O)C23CC4CC(CC(C4)C2)C3)CC1 (stereo not given) | –
23 | 1.47 µM | 31% | O=C(N1CCN(CCO)CC1)C12CC3CC(CC(C3)C1)C2 | IC50 [3]: 0.494 µM
24 | 7.7 µM | 26% | Cc1ccc(C23CC4CC(CC(C(=O)N5CCN(S(=O)(=O)Cc6ccccc6)CC5)(C4)C2)C3)cc1 | –
25 | 0.193 µM | 0% | O=C(N1CCCCC1)C12CC3CC(CC(C3)C1)C2 | IC50 [3]: 0.134 µM

The remaining lines, values behind:

Row | Structure (SMILES) | IC50 [1] | inhibition [2] | further results
26 | Cc1ccc(C23CC4CC(CC(C(=O)N5CCN(C)CC5)(C4)C2)C3)cc1 | 0.08 µM | 0% | IC50 [3]: 0.081 µM; inhibition in vivo at 10 mg/kg (Mus musculus [4]): 0%; inhibition in vivo at 10 mg/kg (Mus musculus [5]): 63%; inhibition in vivo at 10 mg/kg (Mus musculus [6]): 54%; inhibition in vivo at 10 mg/kg (Mus musculus [7]): 39%
27 | CCN1CCN(C(=O)C2CC3CCC2C3)CC1 (stereo not given) | 44 µM | 0% | –
28 | O=C(N1CCN(S(=O)(=O)Cc2ccccc2)CC1)C12CC3CC(CC(C3)C1)C2 | 13 µM | 39% | –
29 | Cc1ccc(C23CC4CC(CC(C(=O)N5CCN(Cc6ccccc6)CC5)(C4)C2)C3)cc1 | 1.5 µM | 80% | –
30 | O=C(N1CCN(CCc2ccccc2)CC1)C12CC3CC(CC(C3)C1)C2 | 47 µM | 0% | –
31 | O=C(N1CCCc2ccccc21)C12CC3CC(CC(C3)C1)C2 | 1.86 µM | 0% | IC50 [3]: 0.481 µM
32 | O=C(N1CCc2ccccc2C1)C12CC3CC(CC(C3)C1)C2 | 5.6 µM | – | –
33 | CCN1CCN(C(=O)C2CCCCC2)CC1 | 53 µM | 0% | –
34 | Cc1ccc(C23CC4CC(CC(C(=O)N5CCN(CCO)CC5)(C4)C2)C3)cc1 | 0.498 µM | 40% | IC50 [3]: 0.043 µM
35 | O=C(N1CCN(Cc2ccccc2)CC1)C12CC3CC(CC(C3)C1)C2 | 7.2 µM | 7% | –
36 | CCN1CCN(C(=O)C23CC4CC(CC(Cc5ccccc5)(C4)C2)C3)CC1 | 1 µM | 0% | –
37 | O=C(N1CCCC1)C12CC3CC(CC(C3)C1)C2 | 0.498 µM | 37% | –
38 | CCN1CCN(C(=O)Cc2ccccc2)CC1 | 7.2 µM | 11% | –
39 | Cc1ccc(C23CC4CC(CC(C(=O)N5CCN(CCc6ccccc6)CC5)(C4)C2)C3)cc1 | 1.9 µM | 53% | –
40 | CCN1CCN(C(=O)C23CC4CC(C2)CC(c2ccc(OC)cc2)(C4)C3)CC1 | 0.6 µM | 51% | –
41 | Cc1ccc(C23CC4CC(CC(C(=O)N5CCN(c6ccccc6)CC5)(C4)C2)C3)cc1 | 7.3 µM | – | –
42 | CCN1CCN(C(=O)C2(c3ccc(F)cc3)CCCC2)CC1 | 12 µM | 0% | –
43 | CCN1CCN(C(=O)c2ccccc2)CC1 | > 100 µM | 0% | –
44 | CCN1CCN(C(=O)C2CC2)CC1 | > 100 µM | 0% | –
45 | Cc1ccc(C23CC4CC(CC(C(=O)N5CCN(C(=O)c6ccccc6)CC5)(C4)C2)C3)cc1 | 36 µM | 0% | –
46 | Cc1ccc(C23CC4CC(CC(C(=O)N5CCN(C(C#N)c6ccccc6)CC5)(C4)C2)C3)cc1 (stereo not given) | 2.1 µM | 48% | –
47 | CCN1CCN(C(=O)CC23CC4CC(CC(C4)C2)C3)CC1 | 4.1 µM | 1% | –
48 | O=C(N1CCN(c2ccccc2)CC1)C12CC3CC(CC(C3)C1)C2 | > 100 µM | 0% | –

— ChEMBL document CHEMBL1139191, “Discovery and biological evaluation of adamantyl amide 11beta-HSD1 inhibitors” (Bioorg Med Chem Lett, 2007)
